Measured values as given in PMC9743090, “Induction of Ferroptosis in Glioblastoma and Ovarian Cancers by a New Pyrrole Tubulin Assembly Inhibitor” (Journal of Medicinal Chemistry, 2022).

Experiments:
[1] = tested on: tubulin; experiment: Inhibition of tubulin polymerization (assembly assay); format: biochemical; settings: tubulin at 10 μM, read-out: Tubulin IC50 ± SD
Protocol: (§1) The assembly reaction mixtures contained 0.8 M monosodium glutamate (pH 6.6 with HCl in a 2 M stock solution), 10 μM tubulin, 4% (v/v) DMSO, and varying concentrations of the drug. Following a 15 min preincubation at 30 °C, samples were chilled on ice, GTP to 0.4 mM was added, and turbidity development was followed at 350 nm in a temperature-controlled recording spectrophotometer for 20 min at 30 °C. The extent of reaction was measured. Full experimental details were previously described.[63] For the colchicine binding assay, reaction mixtures contained 1.0 μM tubulin, 5.0 μM [^3H]colchicine, and 5.0 or 1.0 μM inhibitor and were incubated for 10 min at 37 °C. Complete details were described previously.[64]

[2] = tested on: tubulin; experiment: Inhibition of [3H]colchicine binding to tubulin; settings: for Inhib. colch. binding 1-5-5 (% ± SD): inhibitor at 1:5:5 μM
Protocol: as §1

[3] = tested on: MCF-7 human breast carcinoma cells; experiment: Inhibition of the growth of MCF-7 human breast carcinoma cells; format: cell-based; settings: for IC50: Homo sapiens, MCF7, inhibition of cell growth, cells grown for 96 h, read-out: MCF-7 IC50 ± SD
Protocol: The methodology for the evaluation of the growth of human MCF-7 breast carcinoma cells was previously described, except that cells were grown for 96 h for IC50 determinations.[66] U-87 MG and OVCAR-3 proliferation assays were performed plating 10^4 cells/cm^2 in a Multiwell 24. The day after, cells were treated with compound 15, and DMSO was used as a control. Cells were counted 48 h later with a Bürker counting chamber, after dilution in TrypanBlue (#T6146 Sigma-Aldrich).

[4] = Metabolic stability in mouse liver microsomes; format: in vitro ADME; settings: MLM 0.5 mg/mL, 1 μM, n = 2
Protocol: (§2) Mouse (Sigma Aldrich, CD-1 male, pooled) and human microsomes (Sigma Aldrich, human, pooled) at 0.5 mg/mL were preincubated with the test compound 15 dissolved in DMSO at 1 μM in phosphate buffer 50 mM, pH 7.4, and 3 mM MgCl2 for 10 min at 37 °C. The reaction was then started by adding the cofactor mixture solution (NADP, glucose-6-phosphate, glucose-6-phosphate dehydrogenase in 2% NaHCO3). Samples were taken at 0, 10, 30, 45, and 60 min and added to acetonitrile to stop the reaction. Samples were then centrifuged, and the supernatant was analyzed by LC–MS/MS to quantify the amount of the compound. A control sample without the cofactor was always added to check the chemical stability of the test compound. […] A fixed concentration of verapamil was added in every sample as an internal standard for LC–MS/MS analyses. The percentage of the area of the test compound remaining at the various incubation times was calculated with respect to the area of the compound at time 0 min.
(§3) The rate constant, k (min^–1), derived for the exponential decay equation (peak area/IS vs time), was used to calculate the rate of Cli.
(§4) Samples were analyzed under the following conditions: UPLC Waters coupled with an API 3200 triple-quadrupole (ABSciex); eluents, (phase A) 95% water, 5% acetonitrile + 0.1% HCOOH, (phase B) 5% water, 95% acetonitrile + 0.1% HCOOH; flow rate, 0.3 mL/min; column, Gemini-Nx 5 μm C18 110A (50 × 2.00 mm) at 35 °C; injection volume, 10 μL. Source conditions ESI positive: T 400 °C, Gas 1 30, Gas 2 35, CUR 30, IS 5500, CAD 5.

[5] = Metabolic stability in human liver microsomes; format: in vitro ADME; settings: HLM 0.5 mg/mL, 1 μM, n = 2
Protocol: as §2, §3, §4

Row | Compound | IC50 [1] [nM] | Inhib. colch. binding 1-5-5 (% ± SD) [2] [%] | melting point [°C] | IC50 [3] [nM] | Cli ± SD [4] [μL/min/mg protein] | half-life at 1 h, 1 µM ([4]; male, CD-1, mouse, liver microsomes, pH 7.4, read-out: t1/2 ± SD) [min] | Cli ± SD [5] [μL/min/mg protein] | t1/2 ± SD [5] [min] | Inhibition of MCF-7 cell growth (in words) [3] | Inhibition of [3H]colchicine binding 1:5:1 ([2]; inhibitor at 1:5:1 μM, 1 µM) [%]
1 | COc1cc(C(=O)c2ccn(-c3ccccn3)c2)cc(OC)c1OC [Compound 2, (1-(Pyridin-2-yl)-1H-pyrrol-3-yl)(3,4,5-trimethoxyphenyl)methanone] | 480 ± 100 | 83 ± 0.4 | 120 to 125 | 1100 ± 300 | – | – | – | – | – | –
2 | COc1cc(C(=O)c2ccn(-c3cccnc3)c2)cc(OC)c1OC [Compound 3, (1-(Pyridin-3-yl)-1H-pyrrol-3-yl)(3,4,5-trimethoxyphenyl)methanone] | 1200 ± 100 | 38 ± 3 | – | 2500 ± 70 | – | – | – | – | – | –
3 | COc1cc(C(=O)c2ccn(-c3ccncc3)c2)cc(OC)c1OC [Compound 4, (1-(Pyridin-4-yl)-1H-pyrrol-3-yl)(3,4,5-trimethoxyphenyl)methanone] | > 20000 | 1.4 ± 5 | – | 2500 ± 70 | – | – | – | – | – | –
4 | COc1cc(C(=O)c2ccn(-c3ncccn3)c2)cc(OC)c1OC [Compound 5, (1-(Pyrimidin-2-yl)-1H-pyrrol-3-yl)(3,4,5-trimethoxyphenyl)methanone] | 490 ± 10 | 82 ± 1 | – | 220 | – | – | – | – | – | –
5 | COc1cc(C(=O)c2cn(-c3ccccn3)cc2-c2ccccc2)cc(OC)c1OC [Compound 6, (4-Phenyl-1-(pyridin-2-yl)-1H-pyrrol-3-yl)(3,4,5-trimethoxyphenyl)methanone] | 430 ± 1 | 92 ± 0.5 | 150 to 152 | 18 ± 2 | – | – | – | – | – | –
6 | COc1cc(C(=O)c2cn(-c3cccnc3)cc2-c2ccccc2)cc(OC)c1OC [Compound 7, (4-Phenyl-1-(pyridin-3-yl)-1H-pyrrol-3-yl)(3,4,5-trimethoxyphenyl)methanone] | 740 ± 10 | 52 ± 5 | 171 to 173 | 50 ± 10 | – | – | – | – | – | –
7 | CCOc1ccc2ccc(=O)oc2c1 [Compound 7-EC, 7-ethoxycoumarin, reference compound] | – | – | – | – | 710.8 ± 1.2 | 2 ± 0.1 | 231.3 ± 37.5 | 6.1 ± 1.0 | – | –
8 | COc1cc(C(=O)c2cn(-c3ccncc3)cc2-c2ccccc2)cc(OC)c1OC [Compound 8, (4-Phenyl-1-(pyridin-4-yl)-1H-pyrrol-3-yl)(3,4,5-trimethoxyphenyl)methanone] | 6700 ± 100 | 17 ± 4 | – | 2700 ± 500 | – | – | – | – | weak inhibitors | –
9 | COc1cc(C(=O)c2cn(-c3ccccn3)cc2-c2ccco2)cc(OC)c1OC [Compound 9, (4-(Furan-2-yl)-1-(pyridin-2-yl)-1H-pyrrol-3-yl)(3,4,5-trimethoxyphenyl)methanone] | 740 | 95 ± 0.9 | – | 18 ± 4 | – | – | – | – | – | 69
10 | COc1cc(C(=O)c2cn(-c3cccnc3)cc2-c2ccco2)cc(OC)c1OC [Compound 10, (4-(Furan-2-yl)-1-(pyridin-3-yl)-1H-pyrrol-3-yl)(3,4,5-trimethoxyphenyl)methanone] | 1100 ± 20 | 77 ± 0.1 | – | 39 ± 2 | – | – | – | – | – | –
11 | COc1cc(C(=O)c2cn(-c3ccncc3)cc2-c2ccco2)cc(OC)c1OC [Compound 11, (4-(Furan-2-yl)-1-(pyridin-4-yl)-1H-pyrrol-3-yl)(3,4,5-trimethoxyphenyl)methanone] | 3800 ± 700 | 35 ± 3 | – | 500 ± 70 | – | – | – | – | weak inhibitors | –
12 | COc1cc(C(=O)c2cn(-c3cnccn3)cc2-c2ccco2)cc(OC)c1OC [Compound 12, (4-(Furan-2-yl)-1-(pyrazin-2-yl)-1H-pyrrol-3-yl)(3,4,5-trimethoxyphenyl)methanone] | 910 ± 50 | 86 ± 2 | – | 29 ± 1 | – | – | – | – | strong inhibition | –
13 | COc1cc(C(=O)c2cn(-c3ncccn3)cc2-c2ccccc2)cc(OC)c1OC [Compound 13, (4-Phenyl-1-(pyrimidin-2-yl)-1H-pyrrol-3-yl)(3,4,5-trimethoxyphenyl)methanone] | 690 ± 100 | 88 ± 2 | – | 25 ± 8 | – | – | – | – | strong inhibition | –
14 | COc1cc(C(=O)c2cn(-c3cncnc3)cc2-c2ccccc2)cc(OC)c1OC [Compound 14, (4-Phenyl-1-(pyrimidin-5-yl)-1H-pyrrol-3-yl)(3,4,5-trimethoxyphenyl)methanone] | > 20000 | 4.7 ± 5 | – | > 5000 | – | – | – | – | poor inhibitors | –
15 | COc1cc(C(=O)c2cn(-c3cncnc3)cc2-c2ccco2)cc(OC)c1OC [Compound 16, (4-(Furan-2-yl)-1-(pyrimidin-5-yl)-1H-pyrrol-3-yl)(3,4,5-trimethoxyphenyl)methanone] | 6700 ± 900 | 19 ± 2 | – | 580 ± 30 | – | – | – | – | poor inhibitors | –
